Assay results: PubChem BioAssay AID330 (DTP/NCI, 2004)
Values joined by “and” are separate entries in the source; they are usually repeats but may differ in a detail not shown here. Equal values may be shown once. Toxic doses and inconclusive results are not listed.

System: P388 leukemia ip, CD2F1 mice, survival T/C
Assay: NCI In Vivo Anticancer Drug Screen. Data for tumor model P388 Leukemia (intraperitoneal) in CD2F1 (CDF1) mice
Details: endpoint: median survival time, higher = longer survival
Outline: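 Mice carrying the transplanted tumor received test compound or vehicle. Survival was recorded in each group, and the value is the treated-group measurement divided by that of the vehicle-treated control group.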

[1] = dose: 25.0 mg/kg/injection, schedule: Q01DX009 (ip), vehicle: saline
[2] = dose: 50.0 mg/kg/injection, schedule: Q01DX009 (ip), vehicle: saline
[3] = dose: 100.0 mg/kg/injection, schedule: Q01DX009 (ip), vehicle: saline

CC(CN1CCOCC1)(CN1CCOCC1)[N+](=O)[O-]
T/C (dose: 12.5 mg/kg/injection, schedule: Q01DX009 (ip), vehicle: saline): 111 % of control
T/C [1]: 110 % of control
T/C [2]: 107 % of control and 111 % of control
T/C [3]: 115 % of control

CC1(C)N=C(N)N=C(N)N1c1ccc(OCCCNC(=O)Nc2cccc(S(=O)(=O)F)c2)c(Cl)c1
T/C [1]: 179 % of control
T/C [2]: 190 % of control
T/C [3]: 209 % of control

CCOP(O)(=S)OCC.[Y]
T/C (dose: 50.0 mg/kg/injection, schedule: Q01DX001 (ip), vehicle: Klucel (hydroxypropylcellulose) (HPC)): 90 % of control
T/C (dose: 100.0 mg/kg/injection, schedule: Q01DX001 (ip), vehicle: Klucel (hydroxypropylcellulose) (HPC)): 87 % of control
T/C (dose: 200.0 mg/kg/injection, schedule: Q01DX001 (ip), vehicle: Klucel (hydroxypropylcellulose) (HPC)): 95 % of control

Cc1nnc(-n2nc(-c3ccc(Cl)cc3)cc2N)[nH]c1=O
T/C (dose: 50.0 mg/kg/injection, schedule: Q01DX005 (ip), vehicle: saline with Tween-80): 98 % of control
T/C (dose: 100.0 mg/kg/injection, schedule: Q01DX005 (ip), vehicle: saline with Tween-80): 106 % of control
T/C (dose: 200.0 mg/kg/injection, schedule: Q01DX005 (ip), vehicle: saline with Tween-80): 93 % of control

C=CCc1ccc(OC)c(O)c1C(=O)OCC
T/C [2]: 103 % of control
T/C [3]: 103 % of control
T/C (dose: 200.0 mg/kg/injection, schedule: Q01DX009 (ip), vehicle: saline): 95 % of control

CC(=O)N1OC2(C)c3ccccc3C1(C)c1ccccc12
T/C (dose: 50.0 mg/kg/injection, schedule: Q01DX009 (ip), vehicle: saline with Tween-80): 100 % of control
T/C (dose: 100.0 mg/kg/injection, schedule: Q01DX009 (ip), vehicle: saline with Tween-80): 94 % of control
T/C (dose: 200.0 mg/kg/injection, schedule: Q01DX009 (ip), vehicle: saline with Tween-80): 92 % of control

CCC1c2ccc3cc(OC)ccc3c2CCC1(C)C(=O)O (stereo unspecified)
T/C (dose: 50.0 mg/kg/injection, schedule: Q01DX005 (ip), vehicle: Klucel (hydroxypropylcellulose) (HPC)): 100 % of control
T/C (dose: 100.0 mg/kg/injection, schedule: Q01DX005 (ip), vehicle: Klucel (hydroxypropylcellulose) (HPC)): 98 % of control
T/C (dose: 200.0 mg/kg/injection, schedule: Q01DX005 (ip), vehicle: Klucel (hydroxypropylcellulose) (HPC)): 100 % of control

COC(=O)C1CO[C@@H](C(C)(C)C)N1C=O (stereo partly specified)
T/C (dose: 60.0 mg/kg/injection, schedule: Q01DX005 (ip), vehicle: saline): 104 % of control
T/C (dose: 120.0 mg/kg/injection, schedule: Q01DX005 (ip), vehicle: saline): 110 % of control
T/C (dose: 240.0 mg/kg/injection, schedule: Q01DX005 (ip), vehicle: saline): 101 % of control

COc1cccc(-c2nc(-c3ccccc3)nc(N(C)C)n2)c1O
T/C (dose: 60.0 mg/kg/injection, schedule: Q01DX005 (ip), vehicle: Klucel (hydroxypropylcellulose) (HPC)): 98 % of control
T/C (dose: 120.0 mg/kg/injection, schedule: Q01DX005 (ip), vehicle: Klucel (hydroxypropylcellulose) (HPC)): 92 % of control

Cc1ccc(/C=C2/C/C(=C\c3ccc(C)cc3)C2=O)cc1
T/C (dose: 12.5 mg/kg/injection, schedule: Q04DX003 (ip), vehicle: Klucel (hydroxypropylcellulose) (HPC)): 94 % of control
T/C (dose: 25.0 mg/kg/injection, schedule: Q04DX003 (ip), vehicle: Klucel (hydroxypropylcellulose) (HPC)): 92 % of control
T/C (dose: 50.0 mg/kg/injection, schedule: Q04DX003 (ip), vehicle: Klucel (hydroxypropylcellulose) (HPC)): 87 % of control
T/C (dose: 400.0 mg/kg/injection, schedule: Q04DX003 (ip), vehicle: Klucel (hydroxypropylcellulose) (HPC)): 88 % of control

COC(=O)C1(C)CCCC2(C)c3cc(OC)ccc3C3(CC12)OCCO3 (stereo unspecified)
T/C (dose: 5.0 mg/kg/injection, schedule: Q01DX009 (ip), vehicle: saline): 98 % of control
T/C (dose: 10.0 mg/kg/injection, schedule: Q01DX009 (ip), vehicle: saline): 95 % of control
T/C (dose: 20.0 mg/kg/injection, schedule: Q01DX009 (ip), vehicle: saline): 89 % of control

COc1ccc(C2=NOP(c3ccccc3)(c3ccccc3)(c3ccccc3)C2)cc1
T/C (dose: 1.56 mg/kg/injection, schedule: Q01DX009 (ip), vehicle: water): 102 % of control
T/C (dose: 3.13 mg/kg/injection, schedule: Q01DX009 (ip), vehicle: water): 106 % of control
T/C (dose: 6.25 mg/kg/injection, schedule: Q01DX009 (ip), vehicle: water): 90 % of control
T/C (dose: 12.5 mg/kg/injection, schedule: Q01DX009 (ip), vehicle: water): 107 % of control
T/C (dose: 25.0 mg/kg/injection, schedule: Q01DX009 (ip), vehicle: other): 99 % of control
T/C (dose: 25.0 mg/kg/injection, schedule: Q01DX009 (ip), vehicle: water): 104 % of control
T/C (dose: 50.0 mg/kg/injection, schedule: Q01DX009 (ip), vehicle: Klucel (hydroxypropylcellulose) (HPC)): 105 % of control
T/C (dose: 100.0 mg/kg/injection, schedule: Q01DX009 (ip), vehicle: Klucel (hydroxypropylcellulose) (HPC)): 101 % of control
T/C (dose: 200.0 mg/kg/injection, schedule: Q01DX009 (ip), vehicle: Klucel (hydroxypropylcellulose) (HPC)): 101 % of control

O=C(C=C(C(F)(F)F)C(F)(F)F)c1ccco1
T/C (dose: 12.5 mg/kg/injection, schedule: Q04DX003 (ip), vehicle: saline with Tween-80): 100 % of control
T/C (dose: 25.0 mg/kg/injection, schedule: Q04DX003 (ip), vehicle: saline with Tween-80): 109 % of control
T/C (dose: 50.0 mg/kg/injection, schedule: Q04DX003 (ip), vehicle: saline with Tween-80): 95 % of control
